Data set [1] deals with elderly subjects with TRD. The data set can be described thus: MADRS total score, Study […]3005 (change, response, remission). Type of data set: in vivo, human. As to the method: The primary objective of this study was to evaluate the efficacy of switching elderly subjects with treatment-resistant depression (TRD) from a prior antidepressant treatment (to which they have not responded) to flexibly dosed intranasal esketamine (28 mg, 56 mg or 84 mg) plus a newly initiated oral antidepressant compared with switching to a newly initiated oral antidepressant plus intranasal placebo, in improving depressive symptoms, as assessed by the change from baseline in the Montgomery-Asberg Depression Rating Scale (MADRS) total score from Day 1 (pre-randomization) to the end of the 4-week double-blind induction phase.
Primary Efficacy Evaluation: The primary efficacy evaluation is described in Example 1. Key Secondary Efficacy Evaluation (Clinician-completed): The key secondary efficacy evaluation (clinician-completed) is described in Example 1. Key Secondary Efficacy Evaluation (Patient-reported Outcome): The key secondary efficacy evaluation (patient-reported outcome) is described in Example 1. Primary Endpoint: The primary efficacy endpoint is described in Example 1. Primary Endpoint Results: The primary endpoint results are the same as described in Example 1. See, Table 34 and FIG. 19.
As specified in the SAP, the weighted combination test was the primary analysis for the primary efficacy endpoint since an interim analysis for sample size re-estimation was conducted. A post-hoc analysis using an unweighted MMRM analysis (essentially disregarding the interim analysis) was performed and the one-sided p-value was 0.018 using this approach. The post-hoc one-sided p-value was 0.017 using the unweighted ANCOVA analysis.
Response (≥50% improvement from baseline in the MADRS total score) and Remission (MADRS total score is ≤12) rates are presented in Table 35.
For the clinician-rated assessments, MADRS was administered at baseline and days 8, 15, 22 and 28. MADRS scores were obtained remotely by telephone by independent raters blinded to subject's treatment response. Similarly, the Clinical Global Impressions-Severity (CGI-S) scale was administered at baseline; days 4, 8, 11, 15, 18, 22, 25; and at the 4-week double-blind end point.
For the MADRS, PHQ-9, and SDS total scores, the test for treatment effect was based on mixed model for repeated measures (MMRM) on observed case data with change from baseline as the response variable and the fixed effect model terms for treatment (ESK+AD, AD+PBO), day, class of oral AD (SNRI or SSRI), and treatment-by-day, and baseline value as a covariate. […]
Efficacy was determined by measuring MADRS total scores, SDS scores, PHQ-9 scores and CGI-S scores. […]

Data set [2] has as its system subjects with MDD at imminent risk for suicide. To be noted: human, in vivo, other: intranasal, 84 mg. As to the method: Transient blood pressure increases peaked for the esketamine group at approximately 40 minutes post dose with the maximum mean increases (across all dosing days) in systolic BP being 8.7 in the placebo group and 16.7 in the esketamine 84 mg group. The maximum mean increases (across all dosing days) in diastolic BP were 7.6 in the placebo group and 11.9 in the esketamine 84 mg group. […] See, FIGS. 46 and 47.

A further data set concerns subjects with TRD. To be noted: human, in vivo, other: intranasal.
For data set [3], the system named is patients with treatment-resistant depression (TRD). The data set can be described thus: BPRS positive symptom subscale, phase 2 dose-response study in TRD. The format is in vivo, human. The procedure:
Adverse events were monitored throughout the study. Other safety assessments (i.e., laboratory tests, vital signs, physical examination) were performed at pre-specified time points. Vital signs, the Clinician Administered Dissociative States Scale (CADSS; Bremner, “Measurement of dissociative states with the clinician-administered dissociative states scale (CADSS)”, J. Traumatic Stress, 1998, 11(1):125-136), and the 4-item positive symptom subscale from the Brief Psychiatric Rating Scale (BPRS; Overall, “The Brief Psychiatric Rating Scale. Psychological Reports”, 1962, 10:799-812) were assessed pre-dose, at 40 minutes, and 2 hours post-dose.

Data set [4] is described as follows: Solubility of esketamine HCl. To be noted: for solubility: pH 4.5, aqueous buffer. As to the method:
The clinical investigational product is an aqueous solution of the drug substance, esketamine hydrochloride (HCl). This formulation is administered intranasally to patients using a dual nasal spray device, which delivers one spray into each nostril. […] The formulation was stored at 37° C. for stability reasons until dosing.

Counter-ions that a name gives are not always drawn.

On to `CN[C@]1(c2ccccc2Cl)CCCCC1=O` [esketamine, (S)-2-(2-chlorophenyl)-2-(methylamino)cyclohexanone], for which the “MADRS total score: difference in LS mean change (SE), MMRM” value in data set [1] (Day 28, subjects aged 65-74) is −4.9 (2.04); in data set [1] (Day 28, subjects aged 75 and above) it was −0.4 (5.02). In addition, the “MADRS total score: LS mean (SE) treatment difference” value in data set [1] (Stage 1 (enrolled before interim analysis)) is −1.6 (2.62); in data set [1] (Stage 2 (enrolled after interim analysis)), −5.6 (2.63). Further, in data set [2], the “Blood pressure returning to normal range by (post dose)” value was at most 2 h. Further, the “Maximum mean increase in diastolic BP (across all dosing days)” value in data set [2] (40 minutes) is listed as 11.9. Further, the “Maximum mean increase in systolic BP (across all dosing days)” value in data set [2] (40 minutes) is 16.7. Further, in the data set on subjects with TRD, the “CADSS dissociative/perceptual change symptoms resolved by (post dose)” value is at most 1.5 h. The “Symptoms suggestive of psychosis (BPRS-positive assessment)” value in data set [3] is “No participant manifested symptoms suggestive of psychosis”.

One may read the solubility as the dissolved amount per volume that the medium holds. As for `CN[C@]1(c2ccccc2Cl)CCCCC1=O` [esketamine HCl, (S)-2-(2-chlorophenyl)-2-(methylamino)cyclohexanone hydrochloride], the solubility in data set [4] (aqueous solution) is 207 mg/mL; in data set [4] (water), 180 mg/mL. For the same compound, the “Maximum solubility expressed as esketamine base” value in data set [4] (room temperature, pH 4.5, factor 1.15) was found to be 180 mg esketamine base/mL.

The values are drawn from patent US20230121313A1 (priority 2019, published 2023).
